The results in this text go back to patent US9631225B2, “Luciferase-based assays” (Promega Corporation, priority 2002, dated 2017).

In assay [1] the target is T1, firefly luciferase (QuantiLum® luciferase) (Photinus pyralis, UniProt P08659).
T1 construct: purchased Promega Corporation
The assay can be described thus: Protection of firefly luciferase reaction from inhibition by isoliquirtigenin (ILT). The assay is classed as biochemical. Particulars: ILT 100 μM. As for the experimental part: (§1) In this experiment, several tolerance enhancing agents were evaluated for their ability to protect luciferases from a known luciferase inhibitor, isoliquirtigenin (ILT) (100 μM, Sigma Chemical). ILT was added to luciferase reactions and the potential tolerance enhancing agents were evaluated for their ability to protect the luciferase from inhibition.
The basic firefly luciferase reactions contained 20 mM HEPES (Sigma Chemical) at pH 8.0, 6.4 mM Magnesium Sulfate (Fisher Scientific), 20 mM Dithiothreitol (City Chemical), 0.63 mM Coenzyme A (Pharmacia Biochemical), 0.4 mM EDTA (Sigma Chemical), 4.0 μM Luciferin (Promega Biosciences), 0.56 mM ATP (Pharmacia Biochemical), and 1.3×10^−6 mg/ml firefly luciferase (QuantiLum® luciferase, Promega Corporation).
(§2) ILT was solubilized at 100 mM in dimethyl sulfoxide (Sigma Chemical). ILT was diluted 1:1000 and the protectors were diluted into the reaction mix before the reaction was initiated by the addition of luciferase.
(§3) Reaction volume for each sample was 100 μl. Luminescence was integrated for 0.5 seconds per sample in a Turner Biosystems Veritas® luminometer immediately after luciferase was added to the reactions and the reactions were mixed. All measurements were done in triplicate.
(§4) The relative protection provided by each compound is calculated as difference between the luminescence generated in the presence and the absence of the protector divided by the total amount of inhibition as represented by the following equation: (L1−L2)/(L3−L4) wherein L1 represents luminescence with inhibitor and tolerance enhancing agent; L2 represents luminescence with inhibitor and no tolerance enhancing agent; L3 represents luminescence with no inhibitor and no tolerance enhancing agent; and L4 represents luminescence with inhibitor and no tolerance enhancing agent.
(§5) The relative protection in the presence of no tolerance enhancing agent, therefore, is 0% and in the absence of an inhibitor is 100%. The reactions used to generate luminescence in the absence of either inhibitor or tolerance enhancing agent still contained the solvent utilized to solubilize the inhibitor with which the reaction was to be compared.

In the next assay the target is T2, Renilla luciferase (Renilla reniformis, UniProt P27652).
T2 construct: purchased ChemiCon Chemicals
T2 sequence (P27652 1-311): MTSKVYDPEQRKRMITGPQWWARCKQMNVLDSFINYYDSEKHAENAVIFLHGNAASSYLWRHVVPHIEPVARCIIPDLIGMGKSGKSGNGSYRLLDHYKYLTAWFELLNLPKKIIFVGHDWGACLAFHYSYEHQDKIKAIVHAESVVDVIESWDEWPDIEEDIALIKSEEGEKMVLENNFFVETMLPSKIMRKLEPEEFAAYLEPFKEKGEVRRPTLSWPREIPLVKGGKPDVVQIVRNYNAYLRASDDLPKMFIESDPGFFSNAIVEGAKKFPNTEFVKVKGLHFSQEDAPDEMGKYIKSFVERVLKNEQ
The assay can be described thus: Protection of Renilla luciferase reaction from inhibition by isoliquirtigenin (ILT). The assay is classed as biochemical. Particulars: ILT 100 μM. As for the experimental part: as §1
The basic Renilla luciferase reactions contained 100 mM Potassium Phosphate buffer (Sigma Chemical) at pH 7.4, 500 mM Sodium Chloride (Fisher Scientific), 1.0 mM EDTA (Sigma Chemical), 200 nM Coelenterazine (Promega Biosciences), 0.1% Gelatin (Sigma Chemical) and 0.12 nmol/ml Renilla luciferase (ChemiCon Chemicals).
as §2, §3, §4, §5

Where [2] appears, read: protector reaction concentration 0.02%.
Setting [3] is: protector reaction concentration 0.10%.

T1 sequence (P08659 whole entry): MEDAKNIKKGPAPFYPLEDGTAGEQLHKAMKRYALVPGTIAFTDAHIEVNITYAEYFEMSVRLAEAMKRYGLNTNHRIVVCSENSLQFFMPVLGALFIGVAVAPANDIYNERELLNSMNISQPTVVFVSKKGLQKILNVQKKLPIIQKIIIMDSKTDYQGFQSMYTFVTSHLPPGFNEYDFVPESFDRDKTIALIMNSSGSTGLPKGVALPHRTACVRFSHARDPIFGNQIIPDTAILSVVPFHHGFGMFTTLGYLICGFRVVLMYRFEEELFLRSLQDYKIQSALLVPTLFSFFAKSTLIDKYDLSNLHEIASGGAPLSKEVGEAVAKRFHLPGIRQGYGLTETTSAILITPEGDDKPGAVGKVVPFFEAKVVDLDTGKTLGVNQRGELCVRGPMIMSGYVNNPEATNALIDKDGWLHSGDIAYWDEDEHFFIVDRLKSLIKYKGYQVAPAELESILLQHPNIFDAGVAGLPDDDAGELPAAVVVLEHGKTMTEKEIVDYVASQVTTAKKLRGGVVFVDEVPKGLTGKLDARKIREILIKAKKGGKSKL

`C[C@H](CCC(=O)NCCC[N+](C)(C)CCCS(=O)(=O)[O-])[C@H]1CC[C@H]2[C@@H]3[C@H](O)C[C@@H]4C[C@H](O)CC[C@]4(C)[C@H]3C[C@H](O)[C@]12C` [CHAPS® detergent, 3-([3-Cholamidopropyl]dimethylammonio)-1-propanesulfonate]: the “Relative Protection Against ILT” value in assay [1] (setting [2]) amounted to 18%; in assay [1] (setting [3]) it was 57%; on Renilla luciferase (setting [3]) it was 14%; at Renilla luciferase (protector reaction concentration 0.50%) it was 97%.

For `CCCCCCCCCCCCCCCC[N+](C)(C)C.[Br-]` [CTAB, cetyltrimethylammonium], the “Relative Protection Against ILT” value in assay [1] (setting [2]) is 100%; at Renilla luciferase (setting [3]), 95%.

As to `OC[C@H]1O[C@@](CO)(O[C@H]2O[C@H](CO)[C@@H](O)[C@H](O)[C@H]2O)[C@@H](O)[C@@H]1O` [Sucrose], the “Relative Protection Against ILT” value in assay [1] (protector reaction concentration 0.5% (w:v)) turned out to be 32%; at Renilla luciferase (protector reaction concentration 0.10% (w:v)), 24%.

In the case of `OC[C@H]1O[C@@H]2O[C@H]3[C@H](O)[C@@H](O)[C@@H](O[C@H]4[C@H](O)[C@@H](O)[C@@H](O[C@H]5[C@H](O)[C@@H](O)[C@@H](O[C@H]6[C@H](O)[C@@H](O)[C@@H](O[C@H]7[C@H](O)[C@@H](O)[C@@H](O[C@H]1[C@H](O)[C@H]2O)O[C@@H]7CO)O[C@@H]6CO)O[C@@H]5CO)O[C@@H]4CO)O[C@@H]3CO` [α-Cyclodextrin, α-Cyclodextrin (Cyclohexaamylose)], the “Relative Protection Against ILT” value is given as 61% in assay [1] (protector reaction concentration 7 mM) and 60% on Renilla luciferase (protector reaction concentration 1.4 mM).

With Deoxycholate, the “Relative Protection Against ILT” value in assay [1] (setting [2]) amounted to 81%; on Renilla luciferase (setting [3]) it was 72%.

For “nonylphenol polyethylene glycol ether (C9H19C6H—(OCH2CH2)9OH) [Tergitol NP-9® detergent]”, the “Relative Protection Against ILT” value in assay [1] (setting [2]) is on record as 88%; on Renilla luciferase (setting [3]), 97%.
